Square brackets hold non-standard residues; d marks the D form. Peptide text beside a SMILES is read from it. Orn = NCCC[C@H](N)C(=O)O; βAla = NCCC(=O)O
System: 5 SWI/SNF components
Assay: ELISA-based peptide binding assay, summary for all five proteins
Conditions: biotin-conjugated peptide, same peptide concentrations
Procedure: Fig. 3 Effects of VGN50 on KSHV gene transcription and VGN50 binding with SWI/SNF components. a KSHV qRT-PCR array analysis was used to study effects of VGN50 on KSHV gene transcription in a genome-wide manner. Uninduced (−; no doxycycline added) or dox-induced (+; 1 μg/ml) cells were treated with VGN50 or the mutant peptide (Mut-P) at a concentration of 24 μM. Samples were collected at 24 h post-treatment. Expression in uninduced cells was set as 1 for each viral gene and expression shown as fold activation relative to no-Dox samples. Selected cellular genes were also included in the PCR array for comparison. 18S ribosomal RNA was used as an internal control. b KSHV protein expression. […] Peptide binding measured as OD values at 450 nm are shown. […]
To confirm the basis of the VGN50 action, the biochemical interactions between VGN50 and SWI/SNF proteins (i.e., putative VGN50 target molecules), were examined by ELISA-based binding assays using purified five individual SWI/SNF components prepared from baculovirus-infected Sf9 cells (Fig. 3d). Increasing concentrations of biotin-conjugated VGN50 or Mut-P were incubated in an ELISA plate coated with each SWI/SNF component, and the bound peptides were detected by HRP-streptavidin (Fig. 3e). […]

SMILES: CC(C)C[C@H](NC(=O)CCNC(=O)[C@H](CCCNC(=N)N)NC(=O)[C@H](CCCNC(=N)N)NC(=O)[C@H](CCCNC(=N)N)NC(=O)[C@H](CCCN)NC(=O)[C@H](CCCNC(=N)N)NC(=O)[C@H](CCCNC(=N)N)NC(=O)[C@H](CCCCN)NC(=O)[C@H](CCCCN)NC(=O)[C@H](N)CCCNC(=N)N)C(=O)N[C@@H](CO)C(=O)N[C@@H](CO)C(=O)N[C@@H](C)C(=O)N[C@@H](C)C(=O)N[C@@H](C)C(=O)NCC(=O)N[C@@H](CC(C)C)C(=O)N[C@@H](Cc1ccc(O)cc1)C(=O)N[C@@H](CCC(N)=O)C(=O)N[C@@H](CC(C)C)C(=O)N[C@@H](CC(=O)O)C(=O)N[C@H](C(=O)O)[C@@H](C)O [Mt-P] (H-[dR]KKRR[Orn]RRR[βAla]LSSAAAGLYQLDT-OH; N-terminus and C-terminus assumed)
- Binding to SWI/SNF components compared with VGN50: did not bind SWI/SNF components as much as VGN50

From paper PMC8639922, “KSHV transactivator-derived small peptide traps coactivators to attenuate MYC and inhibits leukemia and lymphoma cell growth” (Communications Biology, 2021)
